Like-named read-outs stand apart in the source and are kept apart here.
Key:
Female Beagle dogs = conditions: for IUP ED5mmHg: dose producing 5 mmHg increase in intraurethral pressure; for effect on intraurethral pressure and mean arterial pressure: increasing i.v. doses, dogs, FIGS. 1-4
Excerpt: Female Beagle dogs (Marshall Farms, North Rose, N.Y.) greater that 2 years of age and weighing between 12 and 15 kg were used in these studies. At least 2 weeks prior to any agonist dosing, dogs were instrumented for the chronic measurement of arterial blood pressure by implanting a telemetry transducer/transmitter (TA11PA-C40, Data Sciences International, St. Paul, Minn.) into a carotid artery.
On the test day, dogs fasted since the previous afternoon were pre-anesthetized with thiopental sodium 15 mg/kg i.v. (Pentothal™, Abbott) and intubated. Anesthesia was maintained by allowing the dog to spontaneously breathe a mixture of isoflurane (2.5 to 3 volume %) and oxygen delivered by a Narkomed Standard anesthesia system (North American Drager, Telford, Pa.). An Abbocath-T™ i.v. catheter (18-G, Abbott Laboratories, Abbott Park, Ill.) was inserted into the cephalic vein for the administration of agonists. A telemetry receiver (RA1310, DataSciences) was placed under the head of each dog and was interfaced to a computerized data acquisition system (Modular Instruments Inc.(MI2), Malvern, Pa.) which allowed for the continuous calibrated recording of arterial blood pressure which was electronically filtered to determine its mean value (MAP).
Intraurethral pressure was monitored using a balloon catheter technique previously described (Brune et al., Drug Development Research 34:267-275,1995). Briefly, a 7 Fr catheter balloon catheter (41224-01, Abbott) was inserted into the urethral orifice and advanced approximately 15 cm until the tip was well inside the bladder. The balloon was then inflated with 1 ml of room air and the catheter slowly withdrawn until resistance (corresponding to the bladder neck) was evident. The balloon was then deflated and the catheter withdrawn an additional 2 cm. The balloon was then reinflated and its catheter port connected to a Gould Statham P23Dd pressure transducer interfaced to a computerized data acquisition system (Modular Instruments, Inc., Malvern, Pa.) for the measurement of intraurethral pressure (IUP). The MAP and IUP pressor responses to increasing iv doses of test agonists were obtained simultaneously. The pressor effects of each dose were allowed to return to baseline before the next dose was given.
The dose required to elicit significant and clinically meaningful changes in IUP (5 mm Hg) relative to the dose required to elicit a physiologically significant increase in blood pressure (20 mm Hg) is calculated.
IUP and MAP pressor effects of each agonist dose were expressed as the maximum net change in each pressure over pre-dose baseline levels. Subsequently, the effective doses required to produce a 5 mmHg increase in IUP (IUP ED5mmHg) and a 20 mmHg increase in MAP (MAP ED20mmHg) were estimated from the dose response data from each dog. Relative urethral versus vascular selectivity of each agonist in each dog was estimated using a ratio of these respective potency indices (MAP ED20mmHg/IUP ED5mmHg).

[1] = target: T1, α1d (rat receptor expressed in mouse fibroblasts) (Rattus norvegicus, UniProt P23944); assay: Radioligand binding with [3H]-prazosin, α1d (rat receptor expressed in mouse fibroblasts)
T1 construct: expressed in transfected cells; host or cells: mouse fibroblasts
T1 sequence (P23944 1-561): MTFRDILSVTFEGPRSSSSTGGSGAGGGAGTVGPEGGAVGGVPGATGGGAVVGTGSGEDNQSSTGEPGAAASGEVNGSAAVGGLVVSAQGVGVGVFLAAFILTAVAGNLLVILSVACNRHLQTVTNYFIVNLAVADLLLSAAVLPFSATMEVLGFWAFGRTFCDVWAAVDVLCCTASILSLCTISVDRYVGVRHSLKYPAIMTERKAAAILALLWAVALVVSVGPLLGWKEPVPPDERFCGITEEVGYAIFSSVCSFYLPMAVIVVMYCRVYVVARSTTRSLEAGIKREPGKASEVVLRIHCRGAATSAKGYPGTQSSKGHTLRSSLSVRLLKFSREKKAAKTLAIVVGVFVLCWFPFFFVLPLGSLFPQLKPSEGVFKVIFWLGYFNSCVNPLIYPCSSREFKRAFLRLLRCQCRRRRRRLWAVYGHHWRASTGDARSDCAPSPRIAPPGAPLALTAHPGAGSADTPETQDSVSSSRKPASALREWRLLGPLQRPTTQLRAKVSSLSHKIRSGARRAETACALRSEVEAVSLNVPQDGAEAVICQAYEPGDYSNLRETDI

[2] = target: T2, α1D adrenoceptor (rat aorta) (Rattus norvegicus, UniProt P23944); conditions: for α1D efficacy: percent of phenylephrine (100%) contraction; for α1D r: Schild plot regression correlation; for α1D slope: Schild plot slope; for type of antagonism at α1D: based on slope and regression (r) of Schild plot
T2 sequence (P23944 1-561): T1 sequence (P23944 1-561)

[3] = target: T3, α1b (hamster receptor expressed in mouse fibroblasts) (Mesocricetus auratus, UniProt P18841); assay: Radioligand binding with [3H]-prazosin, α1b (hamster receptor expressed in mouse fibroblasts)
T3 construct: expressed in transfected cells; host or cells: mouse fibroblasts
T3 sequence (P18841 1-515): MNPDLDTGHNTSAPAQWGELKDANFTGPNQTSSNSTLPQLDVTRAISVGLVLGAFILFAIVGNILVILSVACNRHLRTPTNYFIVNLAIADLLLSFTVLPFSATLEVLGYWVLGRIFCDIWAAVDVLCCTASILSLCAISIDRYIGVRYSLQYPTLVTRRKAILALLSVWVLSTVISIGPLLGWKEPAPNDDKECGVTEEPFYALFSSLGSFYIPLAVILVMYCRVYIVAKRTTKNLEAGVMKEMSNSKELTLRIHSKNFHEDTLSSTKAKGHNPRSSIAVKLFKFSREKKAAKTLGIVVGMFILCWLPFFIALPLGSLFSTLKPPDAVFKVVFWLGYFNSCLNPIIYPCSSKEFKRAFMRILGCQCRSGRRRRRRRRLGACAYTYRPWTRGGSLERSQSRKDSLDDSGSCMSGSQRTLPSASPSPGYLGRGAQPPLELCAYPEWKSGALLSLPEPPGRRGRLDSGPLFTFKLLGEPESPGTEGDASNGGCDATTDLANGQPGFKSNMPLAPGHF
Excerpt: Radioligand Binding Ki (nM)
Exp. Ther. (1995), 274, 97-103.

[4] = target: T2, α1D adrenoceptor (rat aorta); assay: cell-based
[5] = target: T4, α1A (rat submaxillary gland) (Rattus norvegicus, UniProt P43140); assay: Radioligand binding with [3H]-prazosin, α1A (rat submaxillary gland)
T4 construct: from tissue; host or cells: rat submaxillary gland
T4 sequence (P43140 1-466): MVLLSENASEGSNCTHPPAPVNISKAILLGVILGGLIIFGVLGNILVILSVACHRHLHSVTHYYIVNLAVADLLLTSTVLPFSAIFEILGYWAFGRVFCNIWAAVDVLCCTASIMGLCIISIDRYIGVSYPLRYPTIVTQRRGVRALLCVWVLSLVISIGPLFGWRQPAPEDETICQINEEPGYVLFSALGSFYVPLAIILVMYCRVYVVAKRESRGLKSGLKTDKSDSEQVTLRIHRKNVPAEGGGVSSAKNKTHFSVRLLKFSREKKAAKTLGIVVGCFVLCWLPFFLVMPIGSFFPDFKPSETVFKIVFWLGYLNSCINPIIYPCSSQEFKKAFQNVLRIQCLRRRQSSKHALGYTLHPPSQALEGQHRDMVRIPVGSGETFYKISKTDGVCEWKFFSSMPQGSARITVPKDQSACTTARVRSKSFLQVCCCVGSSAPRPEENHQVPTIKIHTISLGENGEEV

[6] = target: T5, α1B adrenoceptor (rat spleen) (Rattus norvegicus, UniProt P15823); conditions: for α1B r: Schild plot regression correlation; for α1B slope: Schild plot slope; for type of antagonism at α1B: based on slope and regression (r) of Schild plot
T5 sequence (P15823 1-515): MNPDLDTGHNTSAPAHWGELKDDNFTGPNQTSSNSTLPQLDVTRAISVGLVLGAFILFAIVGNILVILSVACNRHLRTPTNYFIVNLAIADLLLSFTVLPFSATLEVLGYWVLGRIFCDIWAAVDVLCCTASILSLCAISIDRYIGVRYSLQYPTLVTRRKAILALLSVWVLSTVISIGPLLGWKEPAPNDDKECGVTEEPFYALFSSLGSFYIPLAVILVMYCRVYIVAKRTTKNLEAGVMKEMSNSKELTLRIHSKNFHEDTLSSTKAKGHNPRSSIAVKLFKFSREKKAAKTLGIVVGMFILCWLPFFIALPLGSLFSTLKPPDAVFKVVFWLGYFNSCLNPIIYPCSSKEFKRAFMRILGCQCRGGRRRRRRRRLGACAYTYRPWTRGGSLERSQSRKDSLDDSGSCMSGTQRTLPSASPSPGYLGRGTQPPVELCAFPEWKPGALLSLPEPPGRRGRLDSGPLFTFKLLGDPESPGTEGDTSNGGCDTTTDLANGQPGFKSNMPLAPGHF
Excerpt: A cumulative concentration protocol was employed.

[7] = target: T6, α1A adrenoceptor (rabbit urethra) (Oryctolagus cuniculus, UniProt O02824); assay: Rabbit urethra α1A subtype tissue bath; type: cell-based
T6 sequence (O02824 1-466): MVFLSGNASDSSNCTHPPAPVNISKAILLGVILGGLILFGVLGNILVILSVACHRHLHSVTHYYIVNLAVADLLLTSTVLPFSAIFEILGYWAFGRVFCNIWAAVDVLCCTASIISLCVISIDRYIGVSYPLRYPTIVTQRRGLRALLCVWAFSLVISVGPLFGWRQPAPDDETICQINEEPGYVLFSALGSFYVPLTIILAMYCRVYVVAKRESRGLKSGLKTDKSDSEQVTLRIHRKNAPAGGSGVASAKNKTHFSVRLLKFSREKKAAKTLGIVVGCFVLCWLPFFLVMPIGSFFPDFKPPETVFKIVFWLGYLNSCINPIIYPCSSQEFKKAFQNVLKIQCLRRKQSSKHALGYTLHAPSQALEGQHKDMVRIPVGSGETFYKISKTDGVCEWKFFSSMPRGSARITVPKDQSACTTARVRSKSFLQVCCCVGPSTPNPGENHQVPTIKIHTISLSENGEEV
Excerpt: Rabbit Urethra α1A Subtype
A cumulative concentration protocol was employed. […] Br. J. Pharmacol. 14, 48-58.

[8] = i.v., anesthetized dogs, mean ± S.E.M
[9] = i.v., anesthetized dogs, dose producing 20 mmHg increase in mean arterial pressure, mean ± S.E.M

Structure (SMILES)	IUP ED5mmHg (Female Beagle dogs; [8]) [nmol/kg]	effect on intraurethral pressure and mean arterial pressure (Female Beagle dogs)	Ki [1] [nM]	α1D efficacy ([2]; rat aorta) [%]	MAP ED20mmHg (Female Beagle dogs; [9]) [nmol/kg]	α1D r ([2]; rat aorta)	α1D slope ([2]; rat aorta)	type of antagonism at α1D [2]	Ki [5] [nM]	α1B r ([6]; rat spleen)	α1B slope ([6]; rat spleen)	type of antagonism at α1B [6]	Ki [3] [nM]	other results
CS(=O)(=O)Nc1c(O)ccc2c1CCCC2C1=NCCN1 (centres unmarked) [Compound A-61603, reference compound]	0.16 ± 0.02	dose-dependent increases	1560 ± 169	100										MAP ED20mmHg (Female Beagle dogs; female, Beagle, dog, in vivo, iv): 0.27 ± 0.05 nmol/kg; Ki ([3]; hamster receptor expressed in mouse fibroblasts, [3H]-prazosin, read-out: Radioligand Binding Ki α1b (Hamster)): 1210 nM; EC50 [4]: 2510 nM
CCS(=O)(=O)Nc1cccc(Cc2c[nH]cn2)c1C [Compound A-286569]	41.9 ± 6.2	dose-dependent increases	840 ± 78		201.6 ± 67	0.5	1.1	non-competitive antagonist	150 ± 32	0.6	1.3	non-competitive antagonist	> 10000	
CCS(=O)(=O)Nc1cccc(Cc2c[nH]cn2)c1 [Compound A-286666]			287 ± 41			0.9	0.93	competitive antagonist	137 ± 15	0.9	0.81	competitive antagonist	913 ± 135	
CC(N)C(O)c1ccccc1 (centres unmarked) [PPA, phenylpropanolamine, reference compound]	1092 ± 384	dose-dependent increases		91	331 ± 80									Selectivity ratio MAP ED20/IUP ED5 (Female Beagle dogs; calculated for each dog and then averaged): 0.4; α1A agonist activity (in words) [7]: weak agonist; α1A efficacy ([7]; percent of phenylephrine (100%) contraction): 68%; α1d binding (in words) ([1]; rat receptor expressed in mouse fibroblasts, [3H]-prazosin): weak adrenergic ligand; α1D agonist activity (in words; merged pD2/efficacy cell) ([2]; rat aorta): weak agonist; Radioligand Binding Ki α1A (Rat) ([5]; rat submaxillary gland, [3H]-prazosin): weak adrenergic ligand; α1B efficacy ([6]; percent of phenylephrine (100%) contraction, rat spleen): 34%; α1B agonist activity (in words; merged pD2/efficacy cell) ([6]; rat spleen): weak agonist; α1b binding (in words) ([3]; hamster receptor expressed in mouse fibroblasts, [3H]-prazosin): weak adrenergic ligand
